This note sets out measurements from patent US20070010543A1, “Compositions and methods for treating gastrointestinal hypomotility and associated disorders” (Dynogen Pharmaceuticals, Inc., priority 2005, published 2007).

Where “and” joins values, the source holds several entries; their conditions need not be identical. Identical values can stand only once.

The subject of this assay is guinea-pig distal colon. The assay is described as follows: Fecal pellet propulsion velocity assay, guinea pig ex vivo colon preparation.

From the text: Hartley guinea pigs of either sex (Charles River Laboratories, Wilmington, Mass.) weighing approximately 300 grams were used in all experiments described herein. Segments of distal colon were taken from guinea pigs following euthanasia by isoflurane anesthesia and exsanguination. Colon segments were immediately placed on ice-cold physiological saline solution (PSS, see below for composition).
PSS was made daily and consisted of (in mM) 119 NaCl, 4.7 KCl, 24 NaHCO3, 1.2 KH2PO4, 2.5 CaCl2, 1.2 MgSO4, 11 glucose, and aerated with 95% O2-5% CO2 to obtain pH 7.4. Morphine (Sigma Chemical Company, St. Louis, Mo.), Naltrexone (Sigma Chemical Company, St. Louis, Mo.) or DDP733 (Dynogen Pharmaceuticals, Inc., Waltham, Mass.) were dissolved as stock solutions in distilled water.
Data are reported as means±SEM. Data were analyzed by t-test.
Segments of guinea-pig distal colon (5-8 cms long) were pinned out in an organ bath with pins attached to small pieces of mesentery adhering to the wall of the gut at intervals of approximately 1.5-2 cms. Colonic segments were superfused with oxygenated PSS warmed to about 37° C. An equilibration period was allowed, during which time the gut developed spontaneous tone and emptied its luminal contents. Following the equilibration period, a PE-50 catheter was inserted approximately 1 to 2 cms into the lumen via the anal end of the colon. Oxygenated PSS was perfused intraluminally at a rate of about 0.15 ml/min for a period of 30 minutes. At this point, a dried fecal pellet that had been coated with a synthetic polymer to maintain its structural integrity, was placed into the oral end of the colon, and the intraluminal catheter was advanced to the distal edge of the fecal pellet. The amount of time for the fecal pellet to move about 2 to 3 cms in the aboral direction was measured within the center of the colon segment using a custom computer program and digital video camera. A total of three motility trials were conducted in each experiment under baseline conditions, with a five-minute recovery period between each trial. Motility rates from these first three trials were averaged together to give a measure of baseline motility. After the third baseline trial, a 30-minute inter-trial equilibration period was allowed
At the end of the equilibration period, a fecal pellet was inserted into the oral end of the colon, and motility rate was assessed as before. A total of three motility trials were performed, with a 5-minute recovery period between each trial. Intraluminal infusion of naltrexone or DDP733 was resumed after each trial. Each colon was exposed to only a single concentration of naltrexone or DDP733.
Morphine (0.01 to 10 μM) was added to the superfusate (bath solution) during the inter-trial equilibration period, e.g., 15 minutes prior to the start of motility trials. Morphine remained in the bath solution for the remainder of the experiment. At the end of the equilibration period, a fecal pellet was inserted into the oral end of the colon, and motility rate was assessed as before. A total of three motility trials were performed, with a 5-minute recovery period between each trial. Each colon was exposed to only a single concentration of morphine.
Naltrexone was also infused intraluminally at this point. […] At the end of the equilibration period, a fecal pellet was inserted into the oral end of the colon, and motility rate was assessed as before.

In the case of `O=C(N[C@H]1CN2CCC1CC2)c1c[nH]c2ccsc2c1=O` [DDP733, (R)-N-1-azabicyclo[2.2.2]oct-3-yl-4,7-dihydro-7-oxothieno[3,2-b]pyridine-6-carboxamide], where the note is “in words, summary of Table II”, the “effect on morphine-induced decrease in motility” value was “diminished”. On to `CN1CC[C@]23c4c5ccc(O)c4O[C@H]2[C@@H](O)C=C[C@H]3[C@H]1C5` [Morphine], for which, where the note is “Morphine 0.10 μM in bath, single preparations”, the Motility % control was 72 % control and 57 % control and 73 % control and 78 % control. Further, under “in words, summary of Table II”, the effect on motility entry is recorded as “decrease in motility”.
